Laboratory results published in PMC4920673, “Nitroimidazole carboxamides as antiparasitic agents targeting Giardia lamblia, Entamoeba histolytica and Trichomonas vaginalis” (European Journal of Medicinal Chemistry, 2016).
≈ marks a conversion by molar mass, not a printed value. Where two headings read alike, the source gives them in different places.

Columns and labels:
HepG2 cells = assay: Resazurin cytotoxicity assay, HepG2; assay type: cell-based, Human
Method: (§1) Human HEK293 and HepG2 cells were seeded at 3000 and 5000 cells per well in 384-well plates, respectively. Cells were cultured in Dulbecco's modified Eagle's medium with 10% FBS for 24 h at 37 °C, 5% CO2. A dilution series of compounds was added, with the highest concentration of 100 μM. […] After 24 h incubation with the compounds, 5 μM resazurin was added into each well and incubated at 37 °C for 2 h. As a negative control, 1% Triton X-100 was added into the culture media to lyse all of the cells. The fluorescence intensity was read using Polarstar Omega with excitation/emission 560/590 nm. Data were analysed with GraphPad Prism 6 software (La Jolla, California USA) to calculate CC50 values.

G. lamblia WB (MtzS) = assay: ATP-bioluminescence growth/survival EC50 assay, G. lamblia WB; conditions: for S.I (CC50/EC50): average cytotoxicity against HEK293 and HepG2 / G. lamblia WB activity
Method: (§2) Compounds were screened for antiparasitic activity using an ATP-bioluminescence based assay for cell growth and survival, [24]. […] Viable cell numbers were determined in triplicate using the CellTiter-Glo Luminescent Cell Viability Assay.

G. lamblia 713M3 (MtzR) = assay: ATP-bioluminescence growth/survival EC50 assay, G. lamblia 713M3; assay type: cell-based, Giardia lamblia
Method: as §2

T. vaginalis F1623 = assay: ATP-bioluminescence growth/survival EC50 assay, T. vaginalis; assay type: cell-based, Trichomonas vaginalis
Method: as §2

HEK293 cells = assay: Resazurin cytotoxicity assay, HEK293; assay type: cell-based, Human
Method: as §1

[1] = tested on: C. difficile 630 (ATCC BAA-1382); assay: Broth microdilution MIC assay, C. difficile 630; assay type: cell-based, Clostridium difficile; conditions: for MIC: Clostridioides difficile, ATCCBAA1382
Method: Clostridium difficile strains (630, ATCC BAA-1382 and NAP1/027, ATCC BAA-1803) were maintained as previously described. The minimum inhibition concentration (MIC) was determined according to the CLSI Methods with modifications in broth and inoculum for C. difficile, [25], [26]. Briefly, compounds and control antibiotics were serially diluted two-fold in 96-well plates (Non-binding surface, Corning). […] C. difficile bacteria from BHIS(TA) agar plates were cultured anaerobically in BHIS at 37 °C overnight. […] An antibiotic standard, a positive growth control (no compound) and a sterility control (no bacteria) were included on each 96 well plate. Plates were covered and incubated at 37 °C for 24 h. MICs for each strain were determined as the lowest concentration without visible growth. […] Median MICs are reported with a range given when the median MIC was between two tested concentrations.

E. histolytica HM1:IMSS = assay: ATP-bioluminescence growth/survival EC50 assay, E. histolytica; assay type: cell-based, Entamoeba histolytica
Method: as §2

[2] = Plasma protein binding by ultrafiltration; assay type: in vitro ADME; conditions: human, pooled human plasma (100%), 5 μM, 100% human plasma, 37 °C, 30 min, ultrafiltration; for fraction unbound at 30 min, 5 μM: read-out: Plasma protein binding (% bound); for fraction unbound at 0.5 h, 5 µM: read-out: Plasma protein binding (% bound) (converted)
Method: Plasma Protein Binding (PPB) was performed using an Ultrafiltration method, [28]. […] Samples were incubated at […] for 30 min, then centrifuged at 14,000 × g for 8 min, with the clear supernatant transferred to a vial for LC/MS/MS analysis. […] The fraction of unbound compound was calculated by determining the concentration of the filtered sample and the concentration of unfiltered sample. […] LC/MS/MS parameters are detailed in the supplementary information (Supplementary Table 1).

[3] = tested on: C. difficile NAP1/027 (ATCC BAA-1803); assay: Broth microdilution MIC assay, C. difficile NAP1/027; assay type: cell-based, Clostridium difficile; conditions: Clostridioides difficile, ATCCBAA1803; strain NAP1/027
Method: Clostridium difficile strains (630, ATCC BAA-1382 and NAP1/027, ATCC BAA-1803) were maintained as previously described. The minimum inhibition concentration (MIC) was determined according to the CLSI Methods with modifications in broth and inoculum for C. difficile, [25], [26]. Briefly, compounds and control antibiotics were serially diluted two-fold in 96-well plates (Non-binding surface, Corning). The plates were placed in a Coy anaerobic chamber (5% H2, 10% CO2, 85% N2) overnight to reduce the medium. C. difficile bacteria from BHIS(TA) agar plates were cultured anaerobically in BHIS at 37 °C overnight. […]. Compound concentration ranged from 64 to 0.03 μg/mL. An antibiotic standard, a positive growth control (no compound) and a sterility control (no bacteria) were included on each 96 well plate. Plates were covered and incubated at 37 °C for 24 h. MICs for each strain were determined as the lowest concentration without visible growth. Variance between replicates was typically within one 2-fold dilution. Median MICs are reported with a range given when the median MIC was between two tested concentrations.

[4] = Resazurin cytotoxicity assay, HepG2; assay type: cell-based, Human; conditions: human, 24 h, highest concentration 100 μM, n = 3, read-out: CC50 Hep G2
Method: as §1

[5] = Resazurin cytotoxicity assay, HEK293; assay type: cell-based, Human; conditions: human, 24 h, highest concentration 100 μM, n = 3, read-out: CC50 HEK 293
Method: as §1

[6] = Giardia duodenalis, read-out: EC50 G. lamblia WB, MtzS strain WB, minimum n = 3
[7] = Giardia duodenalis, read-out: pEC50 ± SE G. lamblia WB, MtzS strain WB (converted)
[8] = Giardia duodenalis, read-out: EC50 G. lamblia 713M3, MtzR strain 713M3, minimum n = 3
[9] = Giardia duodenalis, read-out: pEC50 ± SE G. lamblia 713M3, MtzR strain 713M3 (converted)
[10] = Trichomonas vaginalis, read-out: EC50 T. vaginalis F1623, MtzS, minimum n = 3
[11] = Trichomonas vaginalis, read-out: pEC50 ± SE T. vaginalis F1623, MtzS (converted)
[12] = strain 630, MtzS, median of n = 4, read-out: MIC C. difficile 630
[13] = Entamoeba histolytica, read-out: EC50 E. histolytica HM1:IMSS
[14] = Entamoeba histolytica, read-out: pEC50 ± SE E. histolytica HM1:IMSS (converted)
[15] = 630 and NAP1/027 strains together or strain not given, read-out: MIC C. difficile

| Structure (SMILES) | S.I (CC50/EC50) (G. lamblia WB (MtzS)) | MIC [3] | CC50 at 24 h ([4]; HepG2 cells) | EC50 (G. lamblia WB (MtzS); [6]) | EC50 (G. lamblia WB (MtzS); [7]) | EC50 (G. lamblia 713M3 (MtzR); [8]) | EC50 (G. lamblia 713M3 (MtzR); [9]) | EC50 (T. vaginalis F1623; [10]) | EC50 (T. vaginalis F1623; [11]) | CC50 at 24 h ([5]; HEK293 cells) | MIC [1, 12] | EC50 (E. histolytica HM1:IMSS; [13]) | EC50 (E. histolytica HM1:IMSS; [14]) | MIC [1, 15] | also measured |
| --- | --- | --- | --- | --- | --- | --- | --- | --- | --- | --- | --- | --- | --- | --- | --- |
| Cn1c([N+](=O)[O-])cnc1C(=O)NCc1ccc(OC(F)(F)F)cc1 [Compound 8b, 1-methyl-5-nitro-N-(4-(trifluoromethoxy)benzyl)-1H-imidazole-2-carboxamide] | >33 |  |  |  |  |  |  |  |  |  |  |  |  |  | CC50 (HepG2 cells): > 100 µM; pEC50 ± SE G. lamblia WB (G. lamblia WB (MtzS); MtzS strain WB): 5.52 ± 0.03; EC50 (G. lamblia WB (MtzS); read-out: EC50 G. lamblia WB, MtzS strain WB, minimum n = 3): 3 µM; pEC50 ± SE G. lamblia 713M3 (G. lamblia 713M3 (MtzR); MtzR strain 713M3): 5.06 ± 0.29; EC50 (G. lamblia 713M3 (MtzR); MtzR strain 713M3, minimum n = 3, read-out: EC50 G. lamblia 713M3): 8.8 µM; pEC50 ± SE T. vaginalis F1623 (T. vaginalis F1623; MtzS): 4.88 ± 0.01; EC50 (T. vaginalis F1623; MtzS, minimum n = 3, read-out: EC50 T. vaginalis F1623): 13 µM; CC50 (HEK293 cells): > 100 µM; MIC C. difficile 630 ([1]; strain 630, MtzS, median of n = 4): 32 µg/mL (≈ 93 µM); pEC50 ± SE E. histolytica HM1:IMSS (E. histolytica HM1:IMSS; MtzS): 4.85 ± 0.02; EC50 (E. histolytica HM1:IMSS; MtzS, minimum n = 3, read-out: EC50 E. histolytica HM1:IMSS): 14 µM |
| Cn1c([N+](=O)[O-])cnc1C(=O)NC1CCCCC1 [Compound 8k, N-cyclohexyl-1-methyl-5-nitro-1H-imidazole-2-carboxamide] | >20 | > 64 µg/mL | > 100 µM | 4.9 µM | 4.9 µM | 5.1 µM | 5.01 µM | 11 µM | 10.7 µM | > 100 µM | > 64 µg/mL | 3.7 µM | 3.72 µM |  | fraction unbound at 30 min, 5 μM [2]: ≤ 0.06; fraction unbound at 0.5 h, 5 µM [2]: 0.06 |
| O=C(NC1CC1)c1ncc([N+](=O)[O-])[nH]1 [Compound 12j, N-cyclopropyl-5-nitro-1H-imidazole-2-carboxamide] | >20 | 1 µg/mL (≈ 5.1 µM) | > 100 µM | 5 µM | 5.01 µM | > 20 µM | > 20 µM | 4.4 µM | 4.37 µM | > 100 µM | 1 µg/mL (≈ 5.1 µM) | 5.3 µM | 5.25 µM | 1 µg/mL (≈ 5.1 µM) |  |
| O=C(NC1CCCCC1)c1ncc([N+](=O)[O-])[nH]1 [Compound 12k, N-cyclohexyl-5-nitro-1H-imidazole-2-carboxamide] | >167 | 8 µg/mL (≈ 33.6 µM) | > 100 µM |  | 0.603 µM | 5.5 µM | 5.5 µM | 2.4 µM | 2.45 µM | > 100 µM | 8 µg/mL (≈ 33.6 µM) | 2.8 µM | 2.82 µM | 4 to 16 µg/mL (≈ 16.8 to 67.2 µM) | fraction unbound at 30 min, 5 μM [2]: ≤ 0.06; fraction unbound at 0.5 h, 5 µM [2]: 0.01 |
| NC(=O)c1ncc([N+](=O)[O-])[nH]1 [Compound 12l, 5-nitro-1H-imidazole-2-carboxamide] |  | 1 to 2 µg/mL (≈ 6.41 to 12.8 µM) |  | > 50 µM | > 50.1 µM | > 20 µM | > 20 µM | > 20 µM | > 20 µM |  | 1 µg/mL (≈ 6.41 µM) | 13 µM | 13.2 µM |  | CC50 at 24 h [4]: > 100 µM; CC50 at 24 h [5]: > 100 µM |
| CNC(=O)c1ncc([N+](=O)[O-])[nH]1 [Compound 12m, N-methyl-5-nitro-1H-imidazole-2-carboxamide] | >10 | 1 µg/mL (≈ 5.88 µM) | > 100 µM | 9.9 µM | 10 µM | > 20 µM | > 20 µM | 8.5 µM | 8.51 µM | > 100 µM | 0.5 to 1 µg/mL (≈ 2.94 to 5.88 µM) | 6.1 µM | 6.17 µM |  |  |
| O=C(NCCO)c1ncc([N+](=O)[O-])[nH]1 [Compound 12n, N-(2-hydroxyethyl)-5-nitro-1H-imidazole-2-carboxamide] |  | 8 to 16 µg/mL (≈ 40 to 79.9 µM) | > 100 µM | > 50 µM | > 50.1 µM | > 20 µM | > 20 µM | > 20 µM | > 20 µM | > 100 µM | 8 µg/mL (≈ 40 µM) | > 50 µM | > 50.1 µM | 8 to 16 µg/mL (≈ 40 to 79.9 µM) |  |
| CN(CCO)C(=O)c1ncc([N+](=O)[O-])[nH]1 [Compound 12o, N-(2-hydroxyethyl)-N-methyl-5-nitro-1H-imidazole-2-carboxamide] | >4 | 4 µg/mL (≈ 18.7 µM) | > 100 µM | 24 µM | 24 µM | > 20 µM | > 20 µM | > 20 µM | > 20 µM | > 100 µM | 2 µg/mL (≈ 9.34 µM) | > 50 µM | > 50.1 µM | 0.5 to 2 µg/mL (≈ 2.33 to 9.34 µM) |  |
